Source: US4701459A, “7-amino-1,3-dihydro-2H-imidazo[4,5-b]quinolin 2-ones and method for inhibiting phosphodiesterase and blood platelet aggregation” (Bristol-Myers Company, priority 1986, dated 1987)
Values after ≈ are worked out from the molar mass of the structure shown. Like-named read-outs stand apart in the source and are kept apart here.

Tests used:
[1] = tested on: platelet rich plasma (ADP and collagen-induced platelet aggregation); assay: In Vitro Inhibition of Platelet Aggregation (aggregometer method of Born, ADP- or collagen-induced); format: cell-based; settings: Oryctolagus cuniculus, rabbit PRP
Text: In Vitro Inhibition of Platelet Aggregation
The aggregometer method of Born (1), as modified by Mustard, et al. (2) was used to assess the in vitro activity of the various compounds as to inhibition of adenosine diphosphate (ADP) and collagen-induced platelet aggregation. Platelet rich plasma (PRP) was separated by centrifugation from citrated (3.8 percent) rabbit blood. […] The various compounds tested were dissovled in dimethylsulfoxide (DMSO) so that 5 mcl added to the platelet rich plasma would yield the desired test concentration. Vehicle control trials were done and compared with aggregation induced in platelet rich plasma containing various concentrations of the test compounds. Dose response curves were obtained and Effective Concentration (EC50) values calculated.

[2] = tested on: cAMP phosphodiesterase (human platelets); assay: Inhibition of Cyclic AMP Phosphodiesterase; format: biochemical; settings: PDE from human platelets
Description: Inhibition of Cyclic AMP Phosphodiesterase
This assay is carried out essentially as described by Thompson, et al., Methods in Enzymology, 38, 205-212 (1974). Briefly, tritium labeled cyclic adenosine monophosphate (cAMP) is incubated with a phosphodiesterase (PDE) enzynme obtained from human platelets which converts a portion of the cAMP to 5'AMP in culture tubes. This reaction is terminated by submerging the tubes in a boiling water bath after which they are placed on ice and an aliquot of snake venom is added to each tube. This, during a second incubation, converts the 5'AMP to adenosine. Ion exchange resin is added to bind the remaining cyclic AMP. The tubes are centrifuged to sediment the resin and a portion of the clear supernatent (which contains radioactive adenosine) is counted in a liquid scintillation counter. The cAMP phosphodiesterase inhibition activity of a test agent is determined by pre-incubating the PDE enzyme preparation with the test agent.

ferrets = assay: Ferret In Vivo Inotropic Activity; settings: anesthetized ferrets, monitored 60 minutes; for Maximum Percentage Change, Right Ventricular Contractile Force: percent change from predose control
Description: In Vivo Inotropic Activity This test is carried out in ferrets as follows. Fasted anesthetized ferrets are instrumented to study hemodynamic parameters as well as right ventricular contractile force (RVCF) using a Walton-Brodie open strain guage arch. Drugs are administered intraduodenally as solutions in DMSO (1 mL or less) and effects on myocardial contractile force and other parameters are monitored for 60 minutes after dosing. Changes in contractile force in response to drug treatment are expressed in terms of percent change from predose control.

[3] = tested on: platelet rich plasma (induced aggregation); assay: Inhibition of Platelet Aggregation Following Oral Administration (Ex vivo method); format: in vivo; settings: Rattus norvegicus, rats, oral (gavage), 2 hours after dosing, vs. ADP
Description: Inhibition of Platelet Aggregation Following Oral Administration
This test is sometimes referred to in the art as an Ex vivo method and was initially described by Fleming, et al., Arch. Int. Pharmacodyn. Ther., 199, 164 (1972). Briefly, the assay is essentially carried out as follows.
Aggregometry is performed in vitro as previously described on platelet rich plasma samples obtained from rats dosed with either test compounds or the vehicle. In all cases, activity is determined 2 hours after the drug is administered orally at various doses by gavage as a suspension in […] plus a few drops of Tween 20.

[4] = vs. ADP (0.5 mcg/ml), read-out: Platelet Inhibition In Vitro - Rabbit PRP EC50 vs. ADP
[5] = vs. collagen, read-out: Platelet Inhibition In Vitro - Rabbit PRP EC50 vs. collagen

For `CC(=O)Nc1ccc2nc3[nH]c(=O)[nH]c3cc2c1` [Example 4, N-(2,3-Dihydro-2-oxo-1H-imidazo[4,5-b]quinolin-7-yl)acetamide], the EC50 [1, 4] was 2 mg/L (≈ 8.26 µM), the EC50 [1, 5] was 0.8 mg/L (≈ 3.3 µM) and the IC50 [2] was 0.7 µM.
`Nc1ccc2nc3[nH]c(=O)[nH]c3cc2c1` [Example 5, 7-Amino-1,3-dihydro-2H-imidazo[4,5-b]quinolin-2-one] showed an EC50 [1, 5] of 0.4 mg/L (≈ 2 µM).
`O=C(Nc1ccc2nc3[nH]c(=O)[nH]c3cc2c1)c1ccccc1` [Example 6, N-(2,3-Dihydro-2-oxo-1H-imidazo[4,5-b]quinolin-7-yl)benzamide] was tested, and the “Maximum Percentage Change, Blood Pressure” value (ferrets; 3 mg/kg intraduodenal) was -8 ± 6%, the “Maximum Percentage Change, Right Ventricular Contractile Force” value (ferrets; 3 mg/kg intraduodenal) was 9 ± 4% and the IC50 [2] was 0.2 µM. For the same compound, the ED50 [3] was 5.6 mg/kg.
For `O=c1[nH]c2cc3cc(N4CCCCC4)ccc3nc2[nH]1` [Example 7, 1,3-Dihydro-7-(1-piperidinyl)-2H-imidazo[4,5-b]quinolin-2-one], the EC50 [1, 4] was 1 mg/L (≈ 3.73 µM), the “Maximum Percentage Change, Blood Pressure” value (ferrets; 0.3 mg/kg intraduodenal) was -21 ± 5% and the “Maximum Percentage Change, Right Ventricular Contractile Force” value (ferrets; 0.3 mg/kg intraduodenal) was 14 ± 12%. The “Maximum Percentage Change, Blood Pressure” value (ferrets; 3 mg/kg intraduodenal) was -39 ± 3%, the “Maximum Percentage Change, Right Ventricular Contractile Force” value (ferrets; 3 mg/kg intraduodenal) was 22 ± 8% and the ED50 [3] was 20 mg/kg.
`O=c1[nH]c2cc3cc(N4CCCC4)ccc3nc2[nH]1` [Example 8, 1,3-Dihydro-7-(1-pyrrolidinyl)-2H-imidazo-[4,5-b]quinolin-2-one] gave an EC50 [1, 5] of 0.4 mg/L (≈ 1.57 µM).
`CCN(CC)c1ccc2nc3[nH]c(=O)[nH]c3cc2c1` [Example 9, 7-(Diethylamino)-1,3-dihydro-2H-imidazo[4,5-b]quinolin-2-one] gave an EC50 [1, 4] of 0.3 mg/L (≈ 1.17 µM).
With `O=c1[nH]c2cc3cc(N4CCOCC4)ccc3nc2[nH]1` [Example 10, 1,3-Dihydro-7-(4-morpholinyl)-2H-imidazo[4,5-b]quinolin-2-one] the EC50 [1, 4] was 0.03 mg/L (≈ 0.111 µM), the EC50 [1, 5] was 0.02 mg/L (≈ 0.074 µM) and the IC50 [2] was 0.02 µM.
`COC(=O)C1CCN(c2ccc3nc4[nH]c(=O)[nH]c4cc3c2)CC1` [Example 11, Methyl 1-(2,3-Dihydro-2-oxo-1H-imidazo[4,5-b]quinolin-7-yl)-4-piperidinecarboxylate] was tested, and the EC50 [1, 4] was 0.04 mg/L (≈ 0.123 µM) and the EC50 [1, 5] was 0.012 mg/L (≈ 0.0368 µM).
`O=C(O)C1CCN(c2ccc3nc4[nH]c(=O)[nH]c4cc3c2)CC1` [Example 12, 1-(2,3-Dihydro-2-oxo-1H-imidazo[4,5-b]quinolin-7-yl)-4-piperidinecarboxylicAcid] showed an EC50 [1, 4] of 3.5 mg/L (≈ 11.2 µM), an EC50 [1, 5] of 3 mg/L (≈ 9.61 µM) and an IC50 [2] of 0.02 µM.
Compound `CCOC(=O)N1CCN(c2ccc3nc4[nH]c(=O)[nH]c4cc3c2)CC1` [Example 13, Ethyl 4-(2,3-Dihydro-2-oxo-1H-imidazo[4,5-b]quinolin-7-yl)-1-piperazinecarboxylate] has an EC50 [1, 5] of 0.17 mg/L (≈ 0.498 µM) and an IC50 [2] of 0.7 µM.
Work on `O=C(c1ccccc1)N1CCN(c2ccc3nc4[nH]c(=O)[nH]c4cc3c2)CC1` [Example 14, 1-Benzoyl-4-(2,3-dihydro-2-oxo-1H-imidazo[4,5-b]quinolin-7-yl)piperazine] yielded an EC50 [1, 4] of 0.125 mg/L (≈ 0.335 µM) and an IC50 [2] of 0.6 µM.
For `COc1ccc(C(=O)N2CCN(c3ccc4nc5[nH]c(=O)[nH]c5cc4c3)CC2)cc1OC` [Example 15, 1-(2,3-Dihydro-2-oxo-1H-imidazo[4,5-b]quinolin-7-yl)-4-(3,4-dimethoxybenzoyl)piperazine], the EC50 [1, 4] was 3 mg/L (≈ 6.92 µM) and the EC50 [1, 5] was 2 mg/L (≈ 4.61 µM).
`O=c1[nH]c2cc3cc(N4CCN(c5ccccc5)CC4)ccc3nc2[nH]1` [Example 16, 1,3-Dihydro-7-(4-phenyl-1-piperazinyl)-2H-imidazo[4,5-b]quinolin-2-one] was tested, and the EC50 [1, 4] was 0.12 mg/L (≈ 0.347 µM) and the EC50 [1, 5] was 0.025 mg/L (≈ 0.0724 µM).
Work on `CN(C(=O)C1CCN(c2ccc3nc4[nH]c(=O)[nH]c4cc3c2)CC1)C1CCCCC1` [Example 17, N-Cyclohexyl-1-(2,3-dihydro-2-oxo-1H-imidazo[4,5-b]quinolin-7-yl)-N-methyl-4-piperidinecarboxamide] yielded an EC50 [1, 4] of 1.5 mg/L (≈ 3.68 µM) and an EC50 [1, 5] of 0.75 mg/L (≈ 1.84 µM).
With `OCCN(CCO)c1nc(N2CCCCC2)c2nc(N(CCO)CCO)nc(N3CCCCC3)c2n1` [dipyridamole, reference compound] the EC50 [1, 4] was […], the EC50 [1, 5] was […] and the ED50 [3] was over 100 mg/kg.
In the case of `Cc1[nH]c(=O)c(C#N)cc1-c1ccncc1` [milrinone, reference compound], the “Maximum Percentage Change, Right Ventricular Contractile Force” value (ferrets; 3 mg/kg intraduodenal) is reported as 52%.
